Experimental data as given in patent publication US8828908B2, “Herbicidally active bicyclic 1,3-dione compounds” (Syngenta Limited, priority 2007, dated 2014).

What was measured:
Type in all cases: in vivo
Lolium perenne (LOLPE) [1] = assay: Example B pre-emergence herbicidal greenhouse test; conditions: 480 h, evaluated after 20 days, 100=total damage to plant, 0=no damage
How it was run: (§1)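 Pot test: glasshouse-sown pots sprayed 1 day after sowing (pre-emergence) or as 10-day-old seedlings (post-emergence) with aqueous spray from an acetone/emulsifier-solvent formulation of technical compound; damage rated 20 days (pre) or 15 days (post) after treatment on 0-100 scale.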

[2] = system: Digitaria sanguinalis (DIGSA); assay: Example B pre-emergence herbicidal greenhouse test; conditions: 480 h, evaluated after 20 days, 100=total damage to plant, 0=no damage
How it was run: as §1

Avena fatua (AVEFA) [3] = assay: Example B pre-emergence herbicidal greenhouse test; conditions: 480 h, evaluated after 20 days, 100=total damage to plant, 0=no damage
How it was run: as §1

[4] = system: Echinochloa crus-galli (ECHCG); assay: Example B pre-emergence herbicidal greenhouse test; conditions: 480 h, evaluated after 20 days, 100=total damage to plant, 0=no damage
How it was run: as §1

[5] = system: Alopecurus myosuroides (ALOMY); assay: Example B pre-emergence herbicidal greenhouse test; conditions: 480 h, evaluated after 20 days, 100=total damage to plant, 0=no damage
How it was run: as §1

Setaria faberi (SETFA) [6] = assay: Example B pre-emergence herbicidal greenhouse test; conditions: 480 h, evaluated after 20 days, 100=total damage to plant, 0=no damage
How it was run: as §1

[7] = system: Amaranthus retroflexus (AMARE); assay: Example A pre-emergence herbicidal glasshouse test; conditions: 312 h, Rate 250 g/ha, evaluated after 13 days, 100=total damage to plant, 0=no damage to plant
How it was run: (§2)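 Visual injury score (0 none to 100 total plant damage) recorded 13 days after spraying. Plants received an aqueous spray of compound in 50:50 acetone/water with 0.5% Tween 20, either one day after sowing or after eight days of cultivation, in pots kept under controlled glasshouse conditions.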

Avena fatua (AVEFA) [8] = assay: Example A pre-emergence herbicidal glasshouse test; conditions: 312 h, Rate 250 g/ha, evaluated after 13 days, 100=total damage to plant, 0=no damage to plant
How it was run: as §2

[9] = system: Echinochloa crus-galli (ECHCG); assay: Example A pre-emergence herbicidal glasshouse test; conditions: 312 h, Rate 250 g/ha, evaluated after 13 days, 100=total damage to plant, 0=no damage to plant
How it was run: as §2

[10] = system: Alopecurus myosuroides (ALOMY); assay: Example A pre-emergence herbicidal glasshouse test; conditions: 312 h, Rate 250 g/ha, evaluated after 13 days, 100=total damage to plant, 0=no damage to plant
How it was run: as §2

Setaria faberi (SETFA) [11] = assay: Example A pre-emergence herbicidal glasshouse test; conditions: 312 h, Rate 250 g/ha, evaluated after 13 days, 100=total damage to plant, 0=no damage to plant
How it was run: as §2

[12] = system: Amaranthus retroflexus (AMARE); assay: Example A post-emergence herbicidal glasshouse test; conditions: 312 h, evaluated after 13 days, 100=total damage to plant, 0=no damage
How it was run: as §2

Avena fatua (AVEFA) [13] = assay: as above; conditions: 312 h, evaluated after 13 days, 100=total damage to plant, 0=no damage
How it was run: as §2

[14] = system: Echinochloa crus-galli (ECHCG); assay: as above; conditions: 312 h, evaluated after 13 days, 100=total damage to plant, 0=no damage
How it was run: as §2

[15] = system: Alopecurus myosuroides (ALOMY); assay: as above; conditions: 312 h, evaluated after 13 days, 100=total damage to plant, 0=no damage
How it was run: as §2

Setaria faberi (SETFA) [16] = assay: as above; conditions: 312 h, evaluated after 13 days, 100=total damage to plant, 0=no damage
How it was run: as §2

Lolium perenne (LOLPE) [17] = assay: Example B post-emergence herbicidal greenhouse test; conditions: 360 h, evaluated after 15 days, 100=total damage to plant, 0=no damage
How it was run: as §1

[18] = system: Digitaria sanguinalis (DIGSA); assay: as above; conditions: 360 h, evaluated after 15 days, 100=total damage to plant, 0=no damage
How it was run: as §1

Avena fatua (AVEFA) [19] = assay: as above; conditions: 360 h, evaluated after 15 days, 100=total damage to plant, 0=no damage
How it was run: as §1

[20] = system: Echinochloa crus-galli (ECHCG); assay: as above; conditions: 360 h, evaluated after 15 days, 100=total damage to plant, 0=no damage
How it was run: as §1

[21] = system: Alopecurus myosuroides (ALOMY); assay: as above; conditions: 360 h, evaluated after 15 days, 100=total damage to plant, 0=no damage
How it was run: as §1

Setaria faberi (SETFA) [22] = assay: as above; conditions: 360 h, evaluated after 15 days, 100=total damage to plant, 0=no damage
How it was run: as §1

| Compound | pest or weed control at 250 g/ha (Lolium perenne (LOLPE) [1]) [%] | pest or weed control at 250 g/ha [2] [%] | pest or weed control at 250 g/ha (Avena fatua (AVEFA) [3]) [%] | pest or weed control at 250 g/ha [4] [%] | pest or weed control at 250 g/ha [5] [%] | pest or weed control at 250 g/ha (Setaria faberi (SETFA) [6]) [%] | pest or weed control at 250 g/ha [7] [%] | pest or weed control at 250 g/ha (Avena fatua (AVEFA) [8]) [%] | pest or weed control at 250 g/ha [9] [%] | pest or weed control at 250 g/ha [10] [%] | pest or weed control at 250 g/ha (Setaria faberi (SETFA) [11]) [%] | pest or weed control at 250 g/ha [12] [%] | pest or weed control at 250 g/ha (Avena fatua (AVEFA) [13]) [%] | pest or weed control at 250 g/ha [14] [%] | pest or weed control at 250 g/ha [15] [%] | pest or weed control at 250 g/ha (Setaria faberi (SETFA) [16]) [%] | pest or weed control at 125 g/ha (Lolium perenne (LOLPE) [17]) [%] | pest or weed control at 125 g/ha [18] [%] | pest or weed control at 125 g/ha (Avena fatua (AVEFA) [19]) [%] | pest or weed control at 125 g/ha [20] [%] | further results |
| --- | --- | --- | --- | --- | --- | --- | --- | --- | --- | --- | --- | --- | --- | --- | --- | --- | --- | --- | --- | --- | --- |
| CCc1ccc(-c2ccc(Cl)c(C(F)(F)F)c2)cc1C1=C(O)[C@H]2CC[C@H](C2)C1=O (single isomer, unassigned) [Compound T37] | 40 | 90 | 60 | 100 | 70 | 100 | 0 | 0 | 90 | 50 | 90 | 20 | 90 | 100 | 90 | 100 | 30 | 100 | 90 | 100 | pest or weed control at 125 g/ha [21]: 70%; pest or weed control at 125 g/ha (Setaria faberi (SETFA) [22]): 100% |
| CCc1ccc(-c2ccc(F)c(Cl)c2)cc1C1=C(O)[C@H]2CC[C@H](C2)C1=O (single isomer, unassigned) [Compound T39] | 90 | 90 | 40 | 90 | 70 | 90 | 20 | 30 | 100 | 50 | 100 | 0 | 30 | 100 | 60 | 100 | 10 | 80 | 20 | 80 | pest or weed control at 125 g/ha [21]: 0%; pest or weed control at 125 g/ha (Setaria faberi (SETFA) [22]): 70% |
| CCc1ccc(-c2ccc(Cl)cc2F)cc1C1=C(O)[C@H]2CC[C@H](C2)C1=O (single isomer, unassigned) [Compound T41] | 100 | 100 | 60 | 100 | 90 | 100 | 0 | 100 | 90 | 60 | 100 | 0 | 100 | 100 | 60 | 100 | 70 | 100 | 100 | 100 | pest or weed control at 125 g/ha [21]: 80%; pest or weed control at 125 g/ha (Setaria faberi (SETFA) [22]): 100% |
| CCc1ccc(-c2ccc(Cl)cc2OC)cc1C1=C(O)[C@H]2CC[C@H](C2)C1=O (single isomer, unassigned) [Compound T43] | 0 | 60 | 60 | 40 | 0 | 20 | 0 | 0 | 90 | 0 | 30 | 0 | 40 | 90 | 50 | 80 | 30 | 50 | 0 | 70 | pest or weed control at 125 g/ha [21]: 0%; pest or weed control at 125 g/ha (Setaria faberi (SETFA) [22]): 60% |
| CCc1ccc(-c2ccc(Cl)cc2)cc1C1=C(O)[C@H]2C=C[C@H](CC2)C1=O (single isomer, unassigned) [Compound T55] | 60 | 30 | 30 | 50 | 10 | 10 | 0 | 0 | 70 | 0 | 90 | 0 | 20 | 100 | 50 | 100 | 80 | 100 | 70 | 100 | pest or weed control at 125 g/ha [21]: 60%; pest or weed control at 125 g/ha (Setaria faberi (SETFA) [22]): 100% |
| CCc1cc(-c2ccc(Cl)cc2)ccc1C1=C(OC(C)=O)[C@@H]2CC[C@@H](C2)C1=O [Compound P3] | 50 | 70 | 10 | 50 | 30 | 60 | 0 | 40 | 70 | 60 | 80 | 0 | 80 | 100 | 90 | 100 | 80 | 90 | 80 | 80 | pest or weed control at 125 g/ha [21]: 90%; pest or weed control at 125 g/ha (Setaria faberi (SETFA) [22]): 80% |
| CCc1ccc(-c2ccc(Cl)c(C)c2)cc1C1=C(O)[C@H]2CC[C@H](C2)C1=O [Compound T32, 3-(4′-chloro-4-ethyl-3′-methylbiphen-3-yl)bicyclo[3.2.1]octane-2,4-dione] | 90 | 100 | 10 | 100 | 90 | 60 | 0 | 40 | 100 | 30 | 20 | 0 | 0 | 100 | 60 | 90 | 0 | 70 | 10 | 100 | pest or weed control at 125 g/ha [21]: 30%; pest or weed control at 125 g/ha (Setaria faberi (SETFA) [22]): 30% |
| CCc1ccc(-c2ccc(Cl)cc2Cl)cc1C1=C(O)[C@H]2CC[C@H](C2)C1=O [Compound T44, 3-(2′,4′-dichloro-4-ethylbiphen-3-yl)bicyclo[3.2.1]octane-2,4-dione] | 10 | 80 | 10 | 50 | 0 | 70 | 0 | 20 | 90 | 50 | 100 | 0 | 90 | 100 | 90 | 100 | 30 | 100 | 90 | 100 | pest or weed control at 125 g/ha [21]: 60%; pest or weed control at 125 g/ha (Setaria faberi (SETFA) [22]): 100% |
